From patent US9598434B2, “Benzazepine compound” (Astellas Pharma Inc., priority 2010, dated 2017) come the findings set out here.

Each structure is given as a SMILES string.

What is called melting point is the temperature of the solid-liquid transition.

In turn, `CCNC(=O)N1CCCc2cc3c(c(C)c21)CCNCC3.O=C(O)C(=O)O` showed a melting point of 170 to 171 °C. As to `O=C(O)CCC(=O)O.c1ccc(OCCN2CCOc3cc4c(cc32)CCNCC4)cc1`, the melting point was 132 to 134 °C. With `O=C(O)/C=C/C(=O)O.c1nc(CN2CCOc3cc4c(cc32)CCNCC4)cs1`, the melting point is 134 to 138 °C. The result for `COCCN1CCOc2cc3c(c(-c4ccccc4)c21)CCNCC3.O=C(O)/C=C/C(=O)O` reads 199 to 201 °C; that for `COCCN1C(=O)CCc2cc3c(c(Br)c21)CCNCC3.O=C(O)/C=C/C(=O)O`, 99 to 104 °C; that for `CC(C)COC(=O)N1CCCc2cc3c(cc21)CCNCC3.Cl`, 202 to 207 °C. `Cl.O=C1CCc2cc3c(cc2N1Cc1ccccc1)CCNCC3` came in with a melting point of 177 to 180 °C.

`CC(C)CN1C(=O)CCc2cc3c(cc21)CCNCC3.O=C(O)CCC(=O)O` registered a melting point of 142 to 144 °C. As to `COCCCN1C(=O)CCc2cc3c(c(Br)c21)CCNCC3.O=C(O)/C=C/C(=O)O`, the melting point fell in the range of 153 to 155 °C. With `CCCN1C(=O)CCc2cc3c(c(-c4ccccc4)c21)CCNCC3.O=C(O)CCC(=O)O`, the melting point lay within 196 to 200 °C. In the case of `COc1cccc(CN2C(=O)COc3cc4c(cc32)CCNCC4)c1.O=C(O)CCC(=O)O`, the melting point lay in the range of 188 to 189 °C. `O=C(O)CCC(=O)O.O=C1COc2cc3c(cc2N1Cc1cccc(Cl)c1)CCNCC3`: the melting point fell in the range of 192 to 194 °C. The compound `CCCN1C(=O)CCc2cc3c(c(C4CC4)c21)CCNCC3.O=C(O)CCC(=O)O` returned a melting point of 170 to 171 °C. `COc1ccc(CN2C(=O)COc3cc4c(cc32)CCNCC4)cc1.O=C(O)CCC(=O)O` had a melting point of 173 to 176 °C.

Turning to `O=C(O)CCC(=O)O.O=C(OCCc1ccccc1Cl)N1CCCc2cc3c(cc21)CCNCC3`, the melting point is 187 to 188 °C. In turn, `CCN1CCOc2cc3c(c(C4CC4)c21)CCNCC3.O=C(O)/C=C/C(=O)O` returned a melting point of 174 to 177 °C. `CCCN1CCOc2cc3c(c(C4CC4)c21)CCNCC3.O=C(O)/C=C/C(=O)O` gave a melting point of 138 to 141 °C. Consider `O=C(O)/C=C/C(=O)O.OCCN1CCOc2cc3c(c(C4CC4)c21)CCNCC3`, for which the melting point lay in the range of 146 to 150 °C. Turning to `COCCN1CC(C)Oc2cc3c(c(C4CC4)c21)CCNCC3.O=C(O)/C=C/C(=O)O` (centres unmarked), the melting point fell in the range of 102 to 103 °C. Regarding `CCOC(=O)N1CCCc2cc3c(c(Br)c21)CCNCC3.O=C(O)C(=O)O`, the melting point lay in the range of 187 to 189 °C. The result for `O=C(O)C(=O)O.O=C(OCCc1ccccc1)N1CCCc2cc3c(c(Br)c21)CCNCC3` reads 176 to 177 °C; that for `CN1CCC(C)(C)c2cc3c(cc21)CCNCC3.O=C(O)/C=C/C(=O)O`, 197 to 200 °C. With `FC(F)(F)c1cccc(CN2CCOc3cc4c(cc32)CCNCC4)c1.O=C(O)/C=C/C(=O)O`, the melting point is 141 to 146 °C. Compound `COCCN1CCC(C)(C)c2cc3c(cc21)CCNCC3.O=C(O)/C=C/C(=O)O` showed a melting point of 172 to 175 °C. The result for `O=C(O)CCC(=O)O.O=C(OCCc1ccccc1)N1CCOc2cc3c(cc21)CCNCC3` reads 185 to 187 °C; that for `COCCN1CCOc2cc3c(c(-c4ccccc4F)c21)CCNCC3.O=C(O)/C=C/C(=O)O`, 179 to 182 °C; that for `O=C(O)CCC(=O)O.O=C(OCCc1ccccc1Cl)N1CCOc2cc3c(cc21)CCNCC3`, 169 to 170 °C. `O=C(O)CCC(=O)O.O=C(OCCc1cccc(Cl)c1)N1CCOc2cc3c(cc21)CCNCC3` showed a melting point of 160 to 162 °C.

The compound `COc1ccccc1CCOC(=O)N1CCOc2cc3c(cc21)CCNCC3.O=C(O)CCC(=O)O` yielded a melting point of 158 to 160 °C. Regarding `COc1cccc(CCOC(=O)N2CCOc3cc4c(cc32)CCNCC4)c1.O=C(O)CCC(=O)O`, the melting point lay within 134 to 136 °C.

The compound `COCCN1CCOc2cc3c(c(C=C(C)C)c21)CCNCC3.O=C(O)/C=C/C(=O)O` registered a melting point of 173 to 176 °C. Turning to `O=C(O)CCC(=O)O.O=C(OCCc1cccc(F)c1)N1CCOc2cc3c(cc21)CCNCC3`, the melting point lay within 162 to 164 °C. Compound `O=C(O)CCC(=O)O.O=C(OCCc1ccc(F)cc1)N1CCOc2cc3c(cc21)CCNCC3` displayed a melting point of 179 to 181 °C.

In turn, `COCCN1C(=O)C(C)(C)Oc2cc3c(cc21)CCNCC3.O=C(O)/C=C/C(=O)O` had a melting point of 175 to 176 °C. As to `Cl.FC(F)(F)CN1CCOc2cc3c(c(Br)c21)CCNCC3`, the melting point lay within 214 to 215 °C. Regarding `Cl.FC(F)(F)CN1CCOc2c1cc1c(c2Br)CCNCC1`, the melting point lay in the range of 216 to 221 °C. The compound `COCCN1c2cc3c(cc2CCC1(C)C)CCNCC3.O=C(O)/C=C/C(=O)O` yielded a melting point of 156 to 158 °C. The compound `CC(COC(=O)N1CCOc2cc3c(cc21)CCNCC3)c1ccccc1.O=C(O)CCC(=O)O` (centres unmarked) had a melting point of 177 to 179 °C. In turn, `CC(Cc1ccccc1)OC(=O)N1CCOc2cc3c(cc21)CCNCC3.O=C(O)CCC(=O)O` (centres unmarked) gave a melting point of 85 to 87 °C. Next, `O=C(O)CCC(=O)O.O=C(OCCc1ccccc1)N1CCOc2c1cc1c(c2Br)CCNCC1`: 142 to 143 °C; `COCCN1CCOc2c1cc1c(c2Cl)CCNCC1.O=C(O)CCC(=O)O`: 139 to 141 °C; `O=C(O)CCC(=O)O.O=C(OCCc1ccccc1)N1CCOc2c1cc1c(c2C2CC2)CCNCC1`: 142 to 144 °C. Regarding `COCC(F)(F)CN1CCOc2cc3c(cc21)CCNCC3.Cl`, the melting point lay in the range of 172 to 173 °C. For the compound `COCC(F)(F)CN1CCOc2cc3c(c(C4CC4)c21)CCNCC3.O=C(O)/C=C/C(=O)O`, the melting point was in the range of 163 to 165 °C. `COCCN1c2cc3c(cc2OC[C@H]1C)CCNCC3.O=C(O)/C=C/C(=O)O` came in with a melting point of 133 to 136 °C. For `COCCN1c2cc3c(cc2OC[C@@H]1C)CCNCC3.O=C(O)/C=C/C(=O)O`, the melting point lay within 131 to 134 °C. Compound `O=C(O)CCC(=O)O.O=C(OCCc1ccccc1)N1CCOc2c1cc1c(c2-c2ccccc2)CCNCC1` yielded a melting point of 169 to 171 °C. On to `CCCc1c2c(cc3c1OCCN3C(=O)OCCc1ccccc1)CCNCC2.O=C(O)/C=C/C(=O)O`, for which the melting point fell in the range of 134 to 136 °C. Compound `O=C(O)/C=C/C(=O)O.O=C(OCCc1ccccc1)N1CCOc2c1cc1c(c2-c2cccs2)CCNCC1` had a melting point of 215 to 216 °C. As for `CO[C@@H](C)CN1CCOc2cc3c(c(C4CC4)c21)CCNCC3.O=C(O)/C=C/C(=O)O`, the melting point was 135 to 138 °C.

`C[C@H](F)CN1CCOc2cc3c(c(C4CC4)c21)CCNCC3.O=C(O)/C=C/C(=O)O` registered a melting point of 171 to 173 °C. Next, `CN1CCOc2cc3c(c(-c4cccs4)c21)CCNCC3.O=C(O)/C=C/C(=O)O`: 248 to 252 °C. With `COC[C@H](CN1CCOc2cc3c(c(C4CC4)c21)CCNCC3)OC.O=C(O)/C=C/C(=O)O`, the melting point is 150 to 154 °C. The result for `CCCC1CN(C)c2cc3c(cc2O1)CCNCC3.O=C(O)/C=C/C(=O)O` (centres unmarked) reads 152 to 153 °C. For the compound `COC[C@@H](CN1CCOc2cc3c(c(C4CC4)c21)CCNCC3)OC.O=C(O)/C=C/C(=O)O`, the melting point lay within 156 to 158 °C. Next, `COCCCN1CCOc2cc3c(c(C)c21)CCNCC3.O=C(O)/C=C/C(=O)O`: 160 to 163 °C; `CCOCCN1CCOc2cc3c(c(C)c21)CCNCC3.O=C(O)/C=C/C(=O)O`: 152 to 155 °C; `Cc1c2c(cc3c1N(CCCF)CCO3)CCNCC2.O=C(O)/C=C/C(=O)O`: 187 to 190 °C. Regarding `O=C(O)/C=C/C(=O)O.c1c2c(c(C3CC3)c3c1OCCN3CC1CCOC1)CCNCC2` (centres unmarked), the melting point lay within 117 to 118 °C. For the compound `Cc1c2c(cc3c1N(C[C@H](C)F)CCO3)CCNCC2.O=C(O)/C=C/C(=O)O`, the melting point lay in the range of 165 to 168 °C. As to `O=C(O)CCC(=O)O.c1ccc(CN2CCOc3cc4c(c(C5CC5)c32)CCNCC4)cc1`, the melting point was in the range of 107 to 110 °C.

`Fc1cccc(CN2CCOc3cc4c(c(C5CC5)c32)CCNCC4)c1.O=C(O)CCC(=O)O` yielded a melting point of 102 to 105 °C. The result for `CCOCCN1CCOc2cc3c(c(CC)c21)CCNCC3.O=C(O)/C=C/C(=O)O` reads 179 to 181 °C.

`FC(F)CN1CCOc2cc3c(c(C4CC4)c21)CCNCC3.O=C(O)/C=C/C(=O)O`: the melting point fell in the range of 198 to 201 °C. On to `FC1(F)Oc2ccc(CN3CCOc4cc5c(c(C6CC6)c43)CCNCC5)cc2O1.O=C(O)/C=C/C(=O)O`, for which the melting point was 161 to 164 °C. `O=C(O)/C=C/C(=O)O.c1cc(CN2CCOc3cc4c(c(C5CC5)c32)CCNCC4)c2c(c1)OCCO2` gave a melting point of 184 to 187 °C. Compound `CC1(C)CC(=O)Nc2cc3c(cc21)CCNCC3.Cl` came in with a melting point of 270 to 272 °C. For `Fc1cccc(CN2CCOc3cc4c(c(C5CC5)c32)CCNCC4)c1F.O=C(O)/C=C/C(=O)O`, the melting point lay in the range of 157 to 159 °C.

`Fc1c(Cl)cccc1CN1CCOc2cc3c(c(C4CC4)c21)CCNCC3.O=C(O)/C=C/C(=O)O` registered a melting point of 181 to 184 °C. With `COc1cc(OCCN2CCOc3cc4c(c(C5CC5)c32)CCNCC4)c(F)cc1C#N.O=C(O)/C=C/C(=O)O`, the melting point was 125 to 128 °C. `COc1ccc(F)cc1CN1CCOc2cc3c(c(C4CC4)c21)CCNCC3.O=C(O)/C=C/C(=O)O` returned a melting point of 189 to 192 °C.

The compound `COc1ccc(Cl)cc1CN1CCOc2cc3c(c(C4CC4)c21)CCNCC3.O=C(O)/C=C/C(=O)O` gave a melting point of 193 to 196 °C.

Take `COCC(CN1CCOc2cc3c(c(C4CC4)c21)CCNCC3)Oc1ccccc1F.O=C(O)/C=C/C(=O)O` (centres unmarked): the melting point lay within 132 to 133 °C. As for `COCC(CN1CCOc2cc3c(c(C4CC4)c21)CCNCC3)Oc1ccc(F)cc1.O=C(O)/C=C/C(=O)O` (centres unmarked), the melting point was in the range of 138 to 140 °C. For `CCOCc1cc(F)c(OCCN2CCOc3cc4c(c(C5CC5)c32)CCNCC4)c(F)c1.O=C(O)/C=C/C(=O)O`, the melting point lay in the range of 138 to 139 °C. Next, `Clc1cccc(-c2c3c(cc4c2NCCC4)CCNCC3)c1.O=C(O)/C=C/C(=O)O`: 159 to 162 °C; `COCCN1C(=O)CCc2cc3c(cc21)CCNCC3.O=C(O)/C=C/C(=O)O`: 164 to 166 °C.
